Like-named read-outs stand apart in the source and are kept apart here.

One data set relates to MOLM-13 cells. As to the kind of experiment: Inhibition of cell MOLM-13 proliferation (CTG assay). The format is cell-based. The settings on record: Homo sapiens, 72 hours, read-out: MOLM-1 IC50. The text has this: Cell MV-4-11 (ATCC, Cat. No. CRL-9591), cell MOLM-13 (COBIOER, Cat. No. CBP60678), RPMI-1640 (GIBCO, Cat. No. A10491-01), penicillin-streptomycin (GIBCO, Cat. No. 15140-122), fetal bovine serum (GIBCO, Cat. No. 10099-141), phosphate buffer solution PBS (GIBCO, Cat. No. 10010-031), DMSO (Sigma, Cat. No. D8418-1L), CelltiterGlo Assay kit (CTG) (Promega, Cat. No. G7573), 96-well plate with transparent flat bottom and black walls (PerkinElmer, Cat. No. 6005680-50), plate shaker (QILINBEIER, Cat. No. B-9002), centrifuge (Eppendorf, Cat. No. 5804R), CO2 incubator (Thermo Scientific, Cat. No. 371), microscope (OLYMPUS Cat. No. CKX41), multi-plate reader (PerkinElmer, Cat. No. EnVision).
(2) Preparation of Cell Suspension • a) The medium was collected from the culture bottle and centrifuged at 1000 rpm for 5 min. • b) The supernatant was discarded, and the cells were resuspended in medium containing 10% fetal bovine serum, and counted to prepare a cell suspension (cell viability was greater than 90%). • c) The cell suspension was added into a 96-well plate, with […] in each well, namely 5000 MV-4-11 cells/well; 5000 MOLM-13 cells/well. • d) The cell plate was cultured overnight in a 37° C., 5% CO2 incubator.
Dilution of Compounds in DMSO: • a) MV-4-11 cells: The compounds were diluted with DMSO from 10 mM to 60 uM, and then subjected to a 3-fold serial gradient dilution in DMSO from 60 uM, resulting in 9 concentrations. • b) MOLM-13 cells: The compounds were diluted with DMSO from 10 mM to 200 uM, and then subjected to a 3-fold serial gradient dilution in DMSO from 200 uM, resulting in 9 concentrations. • c) Compound Taxol was diluted with DMSO from 10 mM to 200 uM, and then subjected to a 3-fold serial gradient dilution in DMSO from 200 uM, resulting in 9 concentrations.
(4) Treatment of Cells with Compounds (after the Overnight Incubation of the Cell Plate) • a) Each well was replenished with 99 μl of growth medium containing 10% FBS, and then 1 μl of the diluted compound was added to the well. The concentration of DMSO was 0.5%. • b) Concentrations of the tested compounds were: MV-4-11 cells: 300, 100, 33.3, 11.1, 3.7, 1.23, 0.41, 0.137, 0.046, 0 [nM]. • MOLM-13 cells: 1000, 333.3, 111.1, 37.04, 12.35, 4.1, 1.37, 0.46, 0.15, 0 [nM]. • c) Concentrations of control compound Taxol were: 1000, 333.3, 111.1, 37.04, 12.35, 4.12, 1.37, 0.46, 0.15, 0 [nM]. • d) The cell plate was placed in the incubator for 72 hours.
(5) CTG Assay • a) The test plate was placed at room temperature and equilibrated for 30 minutes, and 60 μl of the culture medium was discarded. • b) 60 μl of CTG reagent (CelltiterGlo kit) was added, and the plate was placed on a rapid plate shaker to shake for 2 min, and then let it stand at room temperature for 20 min. • c) Envision was used to read the values.
IC50 values were calculated using GraphPad Prism 6 software. The IC50 (half inhibitory concentration) values of the compounds were obtained by the following non-linear fitting formula. Y=Bottom+(Top−Bottom)/(1+10^((Log IC50−X)*HillSlope)) • X: Log value of the compound concentration • Y: Inhibition rate (% inhibition) % inhibition (inhibition rate)=100*(value of the High Control-value of the test compound well)/(value of the High Control-value of the Low Control)

A short description of data set [1]: Pharmacokinetic experiment in rats. Type of data set: in vivo, Sprague-Dawley rats. The settings on record: rat; for AUC(0-t) / Cmax / Tmax / half-life / AUC(0-inf) / MRT inf: male, Sprague-Dawley, plasma; for AUC(0-inf): read-out: AUCINF_pred; for MRT inf: read-out: MRTINF_pred; for F: PO 10 mg/kg vs IV 3 mg/kg. The protocol: Six male Sprague-Dawley rats, 7 to 8 weeks old, weighing approximately 210 g, were divided into 2 groups with 3 rats in each group. The pharmacokinetic differences of the compounds were compared after they were administered to the rats at a single dose through vein (in vein 3 mg/kg) or mouth (orally 10 mg/kg).
The rats were fed with standard feed and water, and fasted 16 hours before the experiment. The drugs were dissolved with PEG400 and dimethyl sulfoxide. The blood samples were collected from eyelids at the time point of 0.083, 0.25, 0.5, 1, 2, 4, 6, 8, 12 and 24 hours after administration.
The rats were anesthetized for a short time after inhaling ether, and 300 μL of blood samples was collected from the eyelids and put into test tubes, which contains 30 μL of 1% heparin salt solution. The test tubes were dried overnight at 60° C. prior to use. After the blood sample collection at the last time point, the rats were sacrificed after the ether anesthesia.
Immediately after the collection of the blood samples, the test tubes were gently inverted at least 5 times to ensure the fully mixing and placed on ice. The blood samples were centrifuged at 4° C., 5000 rpm for 5 minutes to separate the plasma from the red blood cells. 100 μL of plasma was pipetted into a clean plastic centrifuge tube, with the name of the compound and time point on it. The plasma was stored at −80° C. before analysis, and LC-MS/MS was used to determine the concentration of the compounds disclosed herein in plasma. Pharmacokinetic parameters were calculated based on the plasma concentrations of each animal at different time points.

The IC50 is the concentration that gives 50% inhibition. As a reminder, the AUC(0-t) is exposure summed from dosing to a finite time, without extrapolation to infinity. The Cmax is the maximum level reached in the sampled fluid or tissue. What is called Tmax is the time at which the peak concentration occurs. Usually half-life stands for the time in which the quantity being followed falls by half. Low values mean rapid decline, high ones slow decline. For `[2H]C([2H])([2H])Oc1cc(Nc2nc(NC3CCOCC3)c(CC)nc2C(N)=O)ccc1N1CCC(N2CCN(C)CC2)CC1` [Compound T-1, 6-ethyl-3-((3-(methoxy-d3)-4-(4-(4-methylpiperazin-1-yl)piperidin-1-yl)phenyl)amino)-5-((tetrahydro-2H-pyran-4-yl)amino)pyrazine-2-carboxamide], the IC50 with MOLM-13 cells came to 0.015 µM. For the same compound, in data set [1] (IV 3 mg/kg), the AUC(0-t) was determined as 0.556 µg·h/mL, the Cmax worked out at 0.138 µg/mL, the Tmax was 0.08 h and the half-life was 3.59 h. Besides, in data set [1] (IV 3 mg/kg), the AUC(0-inf) came to 0.572 µg·h/mL, the MRT inf worked out at 4.2 h and the Vz_pred is on record as 28.80 L/kg. In data set [1] (PO 10 mg/kg), the AUC(0-t) is 0.51 µg·h/mL, the Cmax turned out to be 0.0484 µg/mL, the Tmax is 5.33 h and the half-life is 5.93 h. Moreover, in data set [1] (PO 10 mg/kg), the AUC(0-inf) was 0.578 µg·h/mL, the MRT inf turned out to be 7.89 h and the Vz_pred was 162.8 L/kg. In addition, the F in data set [1] came out at 27.52%.

In the case of `[2H]C([2H])([2H])N1CCN(C2CCN(c3ccc(Nc4nc(NC5CCOCC5)c(CC)nc4C(N)=O)cc3OC)CC2)CC1` [Compound T-2, 6-ethyl-3-((3-methoxy-4-(4-(4-(methyl-d3)piperazin-1-yl)piperidin-1-yl)phenyl)amino)-5-((tetrahydro-2H-pyran-4-yl)amino)pyrazine-2-carboxamide], in the data set with MOLM-13 cells, the IC50 is 0.0143 µM.

Regarding `[2H]C([2H])([2H])Oc1cc(Nc2nc(NC3CCOCC3)c(CC)nc2C(N)=O)ccc1N1CCC(N2CCN(C([2H])([2H])[2H])CC2)CC1` [Compound T-3, 6-ethyl-3-((3-(methoxy-d3)-4-(4-(4-(methyl-d3)piperazin-1-yl)piperidin-1-yl)phenyl)amino)-5-((tetrahydro-2H-pyran-4-yl)amino)pyrazine-2-carboxamide], the IC50 with MOLM-13 cells stood at 0.0142 µM.

For `[2H]C([2H])([2H])N1CCN(C2CCN(c3ccc(Nc4nc(NC5CCOCC5)c(C([2H])([2H])C([2H])([2H])[2H])nc4C(N)=O)cc3OC)CC2)CC1` [Compound T-5, 6-(ethyl-d5)-3-((3-methoxy-4-(4-(4-(methyl-d3)piperazin-1-yl)piperidin-1-yl)phenyl)amino)-5-((tetrahydro-2H-pyran-4-yl)amino)pyrazine-2-carboxamide], the IC50 in the data set on MOLM-13 cells worked out at 0.012 µM.

Turning to `[2H]C([2H])([2H])N1C([2H])([2H])C([2H])([2H])N(C2CCN(c3ccc(Nc4nc(NC5CCOCC5)c(CC)nc4C(N)=O)cc3OC)CC2)C([2H])([2H])C1([2H])[2H]` [Compound T-9, 6-ethyl-3-((3-methoxy-4-(4-(4-(methyl-d3)piperazin-1-yl-2,2,3,3,5,5,6,6-d8)piperidin-1-yl)phenyl)amino)-5-((tetrahydro-2H-pyran-4-yl)amino)pyrazine-2-carboxamide], the IC50 in the data set with MOLM-13 cells turned out to be 0.0145 µM.

On to `CCc1nc(C(N)=O)c(Nc2ccc(N3CCC(N4CCN(C)CC4)CC3)c(OC)c2)nc1NC1CCOCC1` [Gilteritinib, 6-ethyl-3-((3-methoxy-4-(4-(4-methylpiperazin-1-yl)piperidin-1-yl)phenyl)amino)-5-((tetrahydro-2H-pyran-4-yl)amino)pyrazine-2-carboxamide, reference compound], for which, in the data set with MOLM-13 cells, the IC50 came to 0.0143 µM. In addition, in data set [1] (IV 3 mg/kg), the AUC(0-t) was 0.449 µg·h/mL, the Cmax came out at 0.196 µg/mL, the Tmax was 0.08 h and the half-life is 4.08 h. For the same compound, in data set [1] (IV 3 mg/kg), the AUC(0-inf) was determined as 0.509 µg·h/mL, the MRT inf is 3.44 h and the Vz_pred was 34.89 L/kg. Further, in data set [1] (PO 10 mg/kg), the AUC(0-t) came out at 0.317 µg·h/mL, the Cmax was found to be 0.0346 µg/mL, the Tmax stood at 8 h and the half-life was 5.76 h. In data set [1] (PO 10 mg/kg), the AUC(0-inf) stood at 0.435 µg·h/mL, the MRT inf came out at 7.46 h and the Vz_pred was 212.0 L/kg. Moreover, the F in data set [1] is recorded as 21.15%.

Values taken from US11512074B2, “Substituted diamino heterocyclic carboxamide compound and a composition containing the compound and use thereof” (Shenzhen TargetRx, Inc., priority 2018, dated 2022).
